From ChEMBL document CHEMBL1132282, “Discovery of novel non-peptide CCR1 receptor antagonists” (J Med Chem, 1999)

Target: T1, C-C chemokine receptor type 1 (Homo sapiens) (UniProt P32246)
T1 sequence (whole entry): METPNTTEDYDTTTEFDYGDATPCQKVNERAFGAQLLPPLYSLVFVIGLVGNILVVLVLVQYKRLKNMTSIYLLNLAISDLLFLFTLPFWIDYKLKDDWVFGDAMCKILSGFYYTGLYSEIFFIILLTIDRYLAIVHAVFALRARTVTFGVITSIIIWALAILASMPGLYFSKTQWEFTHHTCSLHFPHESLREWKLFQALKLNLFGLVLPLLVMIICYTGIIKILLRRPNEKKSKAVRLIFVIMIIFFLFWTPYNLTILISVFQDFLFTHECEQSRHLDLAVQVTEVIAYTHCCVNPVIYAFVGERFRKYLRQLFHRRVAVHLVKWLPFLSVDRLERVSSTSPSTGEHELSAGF
Assay: Inhibition of [125I]-MIP-1 alpha binding to recombinant human C-C chemokine receptor type 1 expressed in HEK293 cells at 3 uM concentration
Format: cell-based

Row | inhibition | Structure (SMILES)
1 | 0% | N#CC1(CCCN2CCC(C(O)(c3ccccc3)c3ccccc3)CC2)c2ccccc2CSc2ccccc21 (centres undefined)
2 | 0% | N#CC1(c2ccccc2)CCN(CCCC2(C#N)c3ccccc3CSc3ccccc32)CC1 (centres undefined)
3 | 19% | N#CC1(CCCN2CCC(c3ccccc3)CC2)c2ccccc2CSc2ccccc21 (centres undefined)

Row | Structure (SMILES) | inhibition
4 | CC(=O)C1(c2ccccc2)CCN(CCCC2(C#N)c3ccccc3CSc3ccccc32)CC1 (centres undefined) | 0%
